Data on 1 compound can be found in ChEMBL document CHEMBL2074133, “Effect of phenobarbital on the expression of bile salt and organic anion transporters of rat liver” (J Hepatol, 2001).

What all share (type): functional, organism-based, Sprague-Dawley
Data set [1] concerns the target T1, Solute carrier organic anion transporter family member 1A4 (Rattus norvegicus, UniProt O35913).
T1 sequence (O35913 whole entry): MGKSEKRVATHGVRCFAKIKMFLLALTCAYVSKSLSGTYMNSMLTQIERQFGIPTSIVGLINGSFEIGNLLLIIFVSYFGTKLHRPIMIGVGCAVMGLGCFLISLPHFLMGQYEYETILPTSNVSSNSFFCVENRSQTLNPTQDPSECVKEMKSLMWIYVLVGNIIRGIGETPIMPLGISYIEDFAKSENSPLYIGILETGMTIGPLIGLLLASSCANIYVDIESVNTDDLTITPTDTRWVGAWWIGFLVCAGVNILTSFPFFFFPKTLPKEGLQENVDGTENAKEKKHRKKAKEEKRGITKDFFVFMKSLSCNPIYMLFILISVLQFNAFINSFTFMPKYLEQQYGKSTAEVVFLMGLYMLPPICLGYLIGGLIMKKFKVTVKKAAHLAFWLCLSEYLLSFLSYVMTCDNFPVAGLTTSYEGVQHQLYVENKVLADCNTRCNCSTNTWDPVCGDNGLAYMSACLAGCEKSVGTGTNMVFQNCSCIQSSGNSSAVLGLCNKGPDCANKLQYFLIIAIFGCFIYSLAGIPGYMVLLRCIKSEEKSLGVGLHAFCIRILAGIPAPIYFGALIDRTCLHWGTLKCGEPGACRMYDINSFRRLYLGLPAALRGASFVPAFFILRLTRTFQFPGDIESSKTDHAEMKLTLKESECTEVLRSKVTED
As to the kind of experiment: (§1) TP_TRANSPORTER: Western in vivo SD rat, liver.

The target in data set [2] is T2, Solute carrier organic anion transporter family member 1A1 (Rattus norvegicus, UniProt P46720).
T2 sequence (P46720 whole entry): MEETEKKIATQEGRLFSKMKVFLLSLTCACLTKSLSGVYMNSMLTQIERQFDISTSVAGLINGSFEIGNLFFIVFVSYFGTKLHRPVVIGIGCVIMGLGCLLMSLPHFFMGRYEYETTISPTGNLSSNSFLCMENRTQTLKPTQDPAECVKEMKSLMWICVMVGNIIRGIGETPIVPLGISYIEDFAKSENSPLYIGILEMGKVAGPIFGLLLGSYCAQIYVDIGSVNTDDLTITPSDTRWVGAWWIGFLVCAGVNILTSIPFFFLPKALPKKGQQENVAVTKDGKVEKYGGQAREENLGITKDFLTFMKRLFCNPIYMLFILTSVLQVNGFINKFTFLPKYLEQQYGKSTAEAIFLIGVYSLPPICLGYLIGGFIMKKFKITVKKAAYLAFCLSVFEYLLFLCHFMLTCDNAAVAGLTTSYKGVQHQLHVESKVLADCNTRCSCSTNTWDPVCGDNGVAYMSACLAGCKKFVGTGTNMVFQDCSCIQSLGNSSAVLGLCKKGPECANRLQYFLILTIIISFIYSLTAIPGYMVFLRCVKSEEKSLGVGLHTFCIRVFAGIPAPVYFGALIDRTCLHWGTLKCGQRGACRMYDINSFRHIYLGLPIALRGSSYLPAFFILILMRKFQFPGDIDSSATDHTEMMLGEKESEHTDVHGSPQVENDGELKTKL
The data set is described as §1.

The target in data set [3] is T1, Solute carrier organic anion transporter family member 1A4. As to the kind of experiment: (§2) TP_TRANSPORTER: Northern blot in vivo SD rat, liver.
The target of data set [4] is T2, Solute carrier organic anion transporter family member 1A1. Described as §2.

As for `CCC1(c2ccccc2)C(=O)NC(=O)NC1=O` [PHENOBARBITAL], the Activity result in data set [1] is “inducer [+]”; in data set [2], “is not an inducer [-]”; in data set [3], “inducer [+]”; in data set [4], “is not an inducer [-]”.
